Assay results from patent US20230303544A1, “LMO2 PROTEIN INHIBITORS” (UNIVERSITY OF OXFORD, priority 2020, published 2023).
“Also recorded” adds a separate entry of the source.

How the values were obtained:
scFv-LMO2 = molecular target: T1, scFv-LMO2 (Homo sapiens, UniProt P25791); test: Photoaffinity labelling (PAL) pulldown; assay type: binding; conditions: 20 μM Abd-L26, UV light, avidin beads
T1 construct: made in house; host or cells: E. coli C41 (DE3)
T1 sequence (P25791 1-158): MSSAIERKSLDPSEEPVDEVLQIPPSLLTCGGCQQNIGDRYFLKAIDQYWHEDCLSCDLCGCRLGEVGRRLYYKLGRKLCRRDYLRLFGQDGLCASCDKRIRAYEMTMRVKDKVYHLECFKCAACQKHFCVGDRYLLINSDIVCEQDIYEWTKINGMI
Description: 20 μM of Abd-L26 with or without 100 μM of Abd-L9 (competitor) are added in a final volume of 400 μL of PBS with 40 μg of purified protein of interest (scFv-LMO2). The same samples are prepared for the no UV controls. The samples are incubated for 25 minutes at RT. The samples to be crosslinked are put into ice and under the UV lamp for crosslinking for 1 hour. The no UV controls are kept on ice. During the 1 hour of crosslinking, the agarose monomeric avidin beads (Cat #20228, Thermofisher) are washed twice with PBS. After the crosslink, 20 μL of washed beads are added in all the samples (crosslinked and non-crosslinked) and incubated for 2 hours at 4° C. on a roller. 2 hours later, wash the beads three times with 400 μL of PBS. The samples are finally denatured with 50 μL of 2× loading buffer with BME added directly on the beads (and boiled at 100° C. for 5 minutes) and loaded for a western blot analysis.

[1] = molecular target: T2, LMO2-iDAb LMO2 (unmutated iDAb) interaction (Homo sapiens, UniProt P25791); test: LMO2-iDAb LMO2 (unmutated iDAb) BRET assay; assay type: cell-based; conditions: BRET dose response
T2 construct: LMO2 cDNA was cloned into the pEF-RLuc8-MCS and pEF-MCS-RLuc8 plasmids; expressed in transfected cells; host or cells: HEK293T
T2 sequence (P25791 1-158): T1 sequence (P25791 1-158)
Description: (§1) For all BRET experiments (titration curves and competition assays) 650,000 HEK293T were seeded in each well of a 6 well plates. After 24 hours at 37° C., cells were transfected with a total of 1.6 μg of DNA mix, containing the donor+acceptor±competitor plasmids, using Lipofectamine 2000 transfection reagent (Thermo-Fisher). In dose response competition experiments, competitors were transfected with the following amount of DNA: 0.1; 0.5 and 1 μg. In single dose competition experiments, competitors were transfected with […] of DNA. Cells were detached 24 hours later, washed with PBS and seeded in a white 96-well plate (clear bottom, PerkinElmer, Cat #6005181) in OptiMEM no phenol red medium complemented with 4% FBS and cells were incubated for an additional 20-24 hours at 37° C. before the BRET assay reading. A detailed BRET protocol is provided by Bery and Rabbitts, (2019).
Compounds were prepared in 100% DMSO at 10 mM. […]
BRET2 signal was determined immediately after injection of coelenterazine 400a substrate (10 μM final) to cells (Cayman Chemicals), using a CLARIOstar instrument (BMG Labtech) with a luminescence module. Total GFP^2 fluorescence was detected with excitation and emission peaks set at 405 nm and 515 nm respectively. Total RLuc8 luminescence was measured with the Luminescence 400-700 nm-wavelength filter. […]

[2] = molecular target: T3, LMO2-iDAb LMO2dm3 interaction (Homo sapiens, UniProt P25791); test: LMO2-iDAb LMO2dm3 BRET assay; assay type: cell-based; conditions: BRET dose response, HEK293T cells, 0.01-50 μM, 22 h
T3 construct: LMO2 cDNA was cloned into the pEF-RLuc8-MCS and pEF-MCS-RLuc8 plasmids; expressed in transfected cells; host or cells: HEK293T
T3 sequence (P25791 1-158): T1 sequence (P25791 1-158)
Description: as §1
Compounds were prepared in 100% DMSO at 10 mM. For BRET competition assays, cells were treated with the indicated compounds at concentration of 1 (or 5), 10 and 20 μM for 22 h. For BRET-based dose response experiments, cells were treated with compounds at concentration of 0.01, 0.1, 1, 4, 10, 25 and 50 μM for 22 h. The compounds were diluted in the BRET medium: OptiMEM no phenol red (Life Technologies) supplemented with 4% FBS and with a final concentration of 0.2% DMSO.
BRET2 signal was determined immediately after injection of coelenterazine 400a substrate (10 μM final) to cells (Cayman Chemicals), using a CLARIOstar instrument (BMG Labtech) with a luminescence module. Total GFP^2 fluorescence was detected with excitation and emission peaks set at 405 nm and 515 nm respectively. Total RLuc8 luminescence was measured with the Luminescence 400-700 nm-wavelength filter.
The BRET signal or BRET ratio corresponds to the light emitted by the GFP^2 acceptor constructs (515 nm±30) upon addition of coelenterazine 400a divided by the light emitted by the RLuc8 donor constructs (410 nm±80). The background signal is subtracted from that BRET ratio using the donor-only negative control where only the RLuc8 fusion plasmid is transfected into the cells. The normalized BRET ratio is the BRET ratio normalized to a negative control (iDAb control or DMSO control) during a competition assay. Total GFP^2 and RLuc8 signals were used to control the protein expression from each plasmid.

Row | SMILES | photo-crosslinking to LMO2 protein (pulldown, Western blot) (scFv-LMO2) | concentration at which LMO2-iDAb LMO2 interaction is inhibited [1] | IC50 [2] [µM]
1 | O=C(CCCC[C@H]1SC[C@H]2NC(=O)N[C@H]21)NCCOCCOCC(=O)Nc1ccc(NC(=O)c2coc(N3CCN(Cc4ccc(C(=O)c5ccccc5)cc4)CC3)n2)cc1 [Abd-L26, 2-(4-(4-benzoylbenzyl)piperazin-1-yl)-N-(4-(2-(2-(2-(5-((3aR,4R,6aS)-2-oxohexahydro-1H-thieno[3,4-d]imidazol-4-yl)pentanamido)ethoxy)ethoxy)acetamido)phenyl)oxazole-4-carboxamide] | observed a biotin labelled protein; also recorded: confirmed binding to LMO2 protein | – | –
2 | COc1cccc(CN2CCN(c3nc(C(=O)Nc4ccc(OC)nc4)cs3)CC2)c1 [Abd-L22, 2-(4-(3-methoxybenzyl)piperazin-1-yl)-N-(6-methoxypyridin-3-yl)thiazole-4-carboxamide] | – | above 25 μM | 6.8
